Results published in patent US20040096951A1, “Crystal structures of retaining glycosytransferases” (priority 2003, published 2004).
pKi: −log10 of the molar value. Structures can show the parent of a compound that is named as a salt.

Experiments:
LgtC [1] = biological target: T1, LgtC (Neisseria meningitidis, UniProt Q93EK7); assay: biochemical; format: biochemical; conditions: for Function as a substrate for LgtC (transfer): galactosyl β-1,6-lactose incubated in the presence of UDP plus the usual buffer components
T1 construct: a deletion mutant of LgtC missing the C-terminal 25 residues; made in house; host or cells: E. coli (AD202)
T1 sequence (Q93EK7 entry or part of it): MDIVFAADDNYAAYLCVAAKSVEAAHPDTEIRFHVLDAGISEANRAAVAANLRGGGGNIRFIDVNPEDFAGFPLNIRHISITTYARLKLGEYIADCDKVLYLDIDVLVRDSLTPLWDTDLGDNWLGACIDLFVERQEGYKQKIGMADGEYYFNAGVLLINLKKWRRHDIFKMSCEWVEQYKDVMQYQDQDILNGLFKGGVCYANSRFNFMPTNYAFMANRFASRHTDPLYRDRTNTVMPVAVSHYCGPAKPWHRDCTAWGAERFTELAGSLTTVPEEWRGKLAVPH
Method: (§1) Synthesis of UDP-2Fgal was achieved essentially as described previously (ref. 19). Syntheses of 4′-deoxylactose, 6′-deoxylactose and galactosyl β-1,6-lactose will be described elsewhere. Kinetic studies were performed at 30° C. in 20 mM HEPES, pH 7.5 containing 0.1% bovine serum albumin, 50 mM KCl, 5 mM MnCl2 and 5 mM DTT. […] The change in absorbance was measured by means of a UNICAM 8700 UV-Vis spectrophotometer equipped with a circulating water bath. Kinetic parameters were calculated by direct fit of the initial rates to the respective equations using Grafit version 3.0 (ref.43).

[2] = test system: two other galactosyltransferases; conditions: shown previously; cited from earlier work
LgtC [3] = biological target: T2, LgtC (Neisseria meningitidis, UniProt Q93EK7, Q189A); assay: biochemical; format: biochemical; conditions: Q189A mutant; added reagent
T2 construct: a deletion mutant of LgtC missing the C-terminal 25 residues; made in house; host or cells: E. coli (AD202)
T2 sequence (Q93EK7 1-286 Q189A): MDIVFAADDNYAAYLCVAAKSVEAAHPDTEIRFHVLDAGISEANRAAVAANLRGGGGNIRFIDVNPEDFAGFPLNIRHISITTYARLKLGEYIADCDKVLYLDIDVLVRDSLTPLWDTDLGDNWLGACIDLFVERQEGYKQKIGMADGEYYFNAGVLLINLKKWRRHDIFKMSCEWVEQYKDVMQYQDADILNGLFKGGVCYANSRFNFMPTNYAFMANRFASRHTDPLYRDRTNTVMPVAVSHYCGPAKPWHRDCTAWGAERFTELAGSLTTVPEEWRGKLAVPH
Method: as §1

[4] = test system: OC[C@H]1O[C@@H](O[C@H]2[C@H](O)[C@@H](O)C(O)O[C@@H]2CO)[C@H](O)[C@@H](O)[C@H]1O; assay: purified protein, by the assay type; format: biochemical, Neisseria meningitidis; conditions: other: LgtC wild type; acceptor substrate; pH 7.5; 30.0 °C

Row | Compound | Function as a substrate for LgtC (transfer) (LgtC [1]; LgtC) | Rescue of activity of the Q189A mutant by added small molecules (rate increase) (LgtC [3]) | also measured
1 | OC[C@@H]1C[C@H](O)[C@@H](O)[C@H](O[C@H]2[C@H](O)[C@@H](O)C(O)O[C@@H]2CO)O1 (some centres unmarked) [4-deoxylactose, 4′-Deoxylactose] | cannot function as a substrate |  | pKi (LgtC [1]): 1.80
2 | C[C@H]1OC(O)[C@H](O)[C@@H](O)[C@@H]1O[C@@H]1O[C@H](CO)[C@H](O)[C@H](O)[C@H]1O (some centres unmarked) [6-deoxylactose] | shown not to function as a substrate |  | Action as an inhibitor of LgtC (LgtC [1]; LgtC): neither did it act as an inhibitor
3 | O=c1ccn([C@@H]2O[C@H](COP(=O)(O)OP(=O)(O)O[C@H]3O[C@H](CO)[C@H](O)[C@H](O)[C@H]3F)[C@@H](O)[C@H]2O)c(=O)[nH]1 [UDP-2FGal, Uridine 5′-diphospho-(2-deoxy-2-fluoro)-α-D-galactopyranose, di-ammonium Salt, reference compound] | no transfer occurs |  | Inhibition of other galactosyltransferases [2]: shown to inhibit; pKi (LgtC [1]): 5.70
4 | CC(N)=O [acetamide] |  | No rate increases were observed | 
5 | CC(=O)O [acetate] |  | No rate increases were observed | 
6 | [N-]=[N+]=[N-] [azide] |  | No rate increases were observed | 
7 | NC=O [formamide] |  | No rate increases were observed | 
8 | O=CO [formate] |  | No rate increases were observed | 
9 | LgtC (Neisseria meningitidis) |  |  | Km [4]: 20 mM
10 | galactosyl β-1,6-lactose | does not function as a substrate |  | 
